# Laboratory results taken from patent publication US8993527B2, “Methods, compositions, and formulations for preventing or reducing adverse effects in a patient” (Pericor Therapeutics, Inc., priority 2005, dated 2015).
# What was measured:
# ischemic myocardium = assay: Inosine levels in venous blood of dogs during coronary artery occlusion; assay type: in vivo, dog; conditions: over the 60-minute assay period, vs saline
# Source text: Thirteen mongrel dogs were anesthetized with phenobarbital. […] C.V. Dis. 20; 55 (1977). […] Two of the surviving saline-treated animals fibrillated. […] That the increase in the levels of adenosine is due, at least in part, to a reduction in the amount of ATP that is converted to inosine was shown by analysis of venous blood from dogs in Example III for inosine levels.
# [1] = tested on: isoproterenol (isuprel)-induced arrhythmias; assay: Suppression of isoproterenol (isuprel)-induced arrhythmias; assay type: in vivo, rat; conditions: 1000 mg/kg intraperitoneally
# Description: Five minutes later both animals were anesthetized with 330 mg/kg of chloral hydrate injected intraperitoneally. Then a single EKG lead was attached to each rat for simultaneous recording of the paired rats' electrocardiograms. To produce arrhythmia, each rat was injected subcutaneously with isuprel […].
# Beginning 30 minutes after isuprel introduction, the electrocardiograph recording paper speed was run (5 cm/sec) for 10 minutes to count the arrhythmic beats of both animals.
# [2] = molecular target: T1, calf intestinal musosa adenosine deaminase (Bos taurus, UniProt P56658); assay: Adenosine deaminase activity; assay type: biochemical; conditions: 80 μM adenosine, 10 minutes at 37° C.
# T1 construct: 0.002 units of calf intestinal musosa adenosine deaminase; from tissue; host or cells: calf intestinal mucosa
# T1 sequence (P56658 whole entry): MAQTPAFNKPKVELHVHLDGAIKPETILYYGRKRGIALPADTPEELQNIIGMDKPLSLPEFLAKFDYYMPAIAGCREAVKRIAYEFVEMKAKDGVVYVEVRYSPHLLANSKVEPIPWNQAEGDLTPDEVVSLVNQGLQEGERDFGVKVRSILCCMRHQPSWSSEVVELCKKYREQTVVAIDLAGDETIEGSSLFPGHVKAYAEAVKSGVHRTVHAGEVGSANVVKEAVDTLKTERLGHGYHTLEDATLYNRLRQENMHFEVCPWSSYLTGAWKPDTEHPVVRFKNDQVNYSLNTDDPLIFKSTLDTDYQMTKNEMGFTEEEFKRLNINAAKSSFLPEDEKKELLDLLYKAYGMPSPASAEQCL
# Description: Different concentrations of the test compounds were incubated in the assay mixture for 10 minutes at 37° C. The reaction was monitored continuously for oxidation of NADH from the change in absorbance at 340 nm.
# [3] = Phase 2 CABG trial: plasma AICA riboside concentrations and clearance; assay type: in vivo; conditions: human, intravenous, low and high doses, pre- and post-bypass, read-out: total plasma clearance (CLp) (converted)
# Description: 10. Plasma Levels. […] Individual values and group means were tabulated and drug clearance calculated. Dose proportionality was assessed.
# The data are also presented graphically in FIG. 18.
# [4] = molecular target: T2, purified pig heart adenosine kinase (Sus scrofa, UniProt A0A5G2R0F5); assay: Adenosine kinase activity; assay type: biochemical; conditions: 0.5 μM [U14C] adenosine, 1 mM ATP, 20 minutes at 37° C.
# T2 construct: 0.1 μg of purified pig heart adenosine kinase; from tissue; host or cells: pig heart
# T2 sequence (A0A5G2R0F5 1-362): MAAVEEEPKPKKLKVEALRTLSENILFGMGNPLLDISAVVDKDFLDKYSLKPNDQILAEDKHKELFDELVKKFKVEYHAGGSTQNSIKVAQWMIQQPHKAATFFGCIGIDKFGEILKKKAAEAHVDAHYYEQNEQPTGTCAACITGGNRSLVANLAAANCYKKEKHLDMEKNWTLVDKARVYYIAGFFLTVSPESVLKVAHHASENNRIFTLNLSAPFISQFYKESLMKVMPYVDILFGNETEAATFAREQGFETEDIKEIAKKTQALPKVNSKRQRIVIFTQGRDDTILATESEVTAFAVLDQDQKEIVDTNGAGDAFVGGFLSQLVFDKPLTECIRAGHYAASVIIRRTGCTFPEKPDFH
# Description: Inhibition of enzyme activity was determined using a 0.1 ml assay mixture containing 50 mM Tris-maleate, pH 7.0, 0.1% (w/v) BSA, 1 mM ATP, 1 mM MgCl2, 0.5 μM [U^14 C] adenosine (500 mCi/mmol) and 0.1 μg of purified pig heart adenosine kinase. Different concentrations of test compound were incubated in the assay mixture for 20 minutes at 37° C. From each reaction mixture, 20 μl portions were removed and spotted on 2^2 pieces of Whatman DE81 filter paper. The papers were then washed to remove [^14 C] adenosine in 1 mM ammonium formate followed by deionized water and finally 95% ethanol. The papers were dried, and [^14C] AMP measured by scintillation counting. Activities were determined from the amount of [^14C] AMP formed.
# [5] = tested on: HPRT+ neuroblastoma cells; assay: Adenosine excretion by stimulated HPRT+ neuroblastoma cells; assay type: cell-based; conditions: 50 μM AICA riboside, calcium ionophore A23187, 1.0 μM deoxycoformycin
# Description: To induce ATP catabolism, the growth medium was replaced by medium containing micromolar amounts of the calcium ionophore A23187 and 1.0 μM deoxycoformycin.
# mast cells = assay: AICA riboside: mast cell leukotriene C4 release; assay type: cell-based, mouse; conditions: 100 μM pretreatment for six days
smiles,measurement,setting,value
"NC(=O)c1ncn([C@@H]2O[C@H](CO)[C@@H](O)[C@H]2O)c1N [1 (1-110), 5-amino-1-β-D-ribofuranosyl-imidazole-4-carboxamide]",inosine levels,ischemic myocardium,more than twofold decrease
same,ventricular fibrillation,[1],complete suppression
same,IC50,[2],> 5 mM
same,clearance,[3],~20 mL/min/kg
same,IC50,[4],> 5 mM
same,adenosine secreted vs control cells,[5],at least twofold more adenosine than control cells
same,Leukotriene C4 release reduced by,mast cells,75%
